The text below walks through data of patent publication US20080227815A1, “Crystal of Indole Derivative Having Piperidine Ring and Process for Production Thereof” (priority 2005, published 2008).

The target in one experiment is T1, Rat 5-HT1A (Rattus norvegicus, UniProt P19327).
T1 construct: A rat hippocampus sample was homogenized in a 50 mM Tris-HCl buffer; from tissue; host or cells: rat hippocampus (membrane fraction)
T1 sequence (P19327 1-422): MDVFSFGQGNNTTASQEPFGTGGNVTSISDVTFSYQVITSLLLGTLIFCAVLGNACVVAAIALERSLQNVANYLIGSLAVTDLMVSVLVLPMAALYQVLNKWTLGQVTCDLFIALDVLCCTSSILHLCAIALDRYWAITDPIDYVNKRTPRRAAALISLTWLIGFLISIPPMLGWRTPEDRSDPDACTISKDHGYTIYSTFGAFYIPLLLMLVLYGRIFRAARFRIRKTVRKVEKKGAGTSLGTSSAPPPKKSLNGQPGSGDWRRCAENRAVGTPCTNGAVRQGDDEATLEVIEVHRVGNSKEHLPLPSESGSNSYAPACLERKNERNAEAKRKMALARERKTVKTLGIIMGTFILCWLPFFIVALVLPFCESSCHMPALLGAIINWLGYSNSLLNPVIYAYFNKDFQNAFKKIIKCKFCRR
The experiment in a line: Affinity for rat serotonin1A receptor ([3H]MPPF binding to rat hippocampal membrane fraction). As to conditions: pH 7.4, 25° C., 60 min, non-specific binding with 10 μM serotonin, Ki from IC50, tracer concentration and Kd (Scatchard). On the procedure:
Test Regarding Affinity for Rat Serotonin1A Receptor
An MPPF rat hippocampal membrane fraction selectively binding to the 5-HT1A receptor was used to test affinity of a test substance for the rat 5-HT1A receptor.
A rat hippocampus sample was homogenized in a 50 mM Tris-HCl buffer (pH 7.4; hereinafter referred to as “buffer A”) that had been cooled with ice. The suspension was centrifuged at 50,000×g for 20 minutes. The obtained sediment was suspended in buffer solution A, and the resultant solution was then centrifuged at 50,000×g for 20 minutes. The obtained sediment was suspended in buffer solution to obtain a rat hippocampus membrane fraction.
The mixture used for incubation contained an appropriate amount of membrane fraction, a test substance at a desired concentration, [^3H]MPPF, dimethyl sulfoxide and buffer A. The reaction was initiated through the addition of the membrane fraction, and the mixture was incubated at 25° C. for 60 minutes. After incubation, the mixture was subjected to vacuum filtration by passing through a glass filter using a Cell Harvester. The filter was washed 3 times with buffer solution A, and then radioactivity binding to the receptor was measured with a liquid scintillation counter. Non-specific binding was defined as binding detected in the presence of 10 μM serotonin. […]

A further experiment relates to urinary reflex. The experiment in a line: Inhibitory action against the increased urinary reflex action due to destruction of the superior colliculus in rats (cystometrogram). Type of experiment: in vivo, rat (Sprague-Dawley. As to conditions: 1 mg/kg, i.v.; superior colliculus-lesioned female Sprague-Dawley rats; maximal reaction (Emax). An excerpt: In the present test, Sprague-Dawley female rats (200-350 g) were used. The rats underwent a median incision of the abdomen under anesthesia. A hole with a minor diameter was made on the apex of the bladder, and a catheter used for measurement of an intravesical pressure was placed therein. A catheter used for administration of a test substance was placed in the femoral vein. These catheters were fixed at the occipital region of the rat through the subcutis. One day later, the urinary reflex of the rats was measured with a cystometrogram. Thereafter, the rats were fixed on a brain stereotaxis apparatus under anesthesia, and then subjected to a median incision of the scalp. […] Electric current was then applied (65° C., 4 minutes) so as to damage the brain tissue. After completion of the operation, when the rat awoke from the anesthesia, cystometrogram was conducted again to confirm the increased state of urinary reflex. A test substance was administered through the catheter placed in the femoral vein, and the action of the test substance on urinary reflex was evaluated. In addition, the effects of several test substances were compared using the maximal reaction (Emax).

Where a name gives a salt, the structure may show the parent alone.

In general, Ki refers to a measure of affinity in units of concentration, obtained from inhibition or displacement. Read a high Ki as weaker binding. In turn, `CNC(=O)c1ccc2ccn(C3CCN(CCc4c(OC)ccc5c4OC(C)(C)CC5=O)CC3)c2c1` [Form D crystal form of fumarate, 1-{1-[2-(7-methoxy-2,2-dimethyl-4-oxochroman-8-yl)ethyl]piperidin-4-yl}-N-methyl-1H-indole-6-carboxamide fumarate (form D crystal)] yielded a Ki at Rat 5-HT1A of 0.045 nM. Besides, the “Urinary interval Emax” value in the experiment on urinary reflex was 75%.
